Source: US20130072714A1, “BIOBASED COMPOSITIONS OF DIAMMONIUM SUCCINATE, MONOAMMONIUM SUCCINATE AND/OR SUCCINIC ACID AND DERIVATIVES THEREOF” (BioAmber International S.à.r.l., priority 2011, published 2013)
“Also recorded” adds a separate entry of the source.

Experiment: Heated color test: SA plus 1,4-butanediol with trace glucose and/or alanine, 180° C., visual inspection
Format: physicochemical
Details: 1.0 gram 1,4-butanediol plus 0.5 gram SA, 2 hours
Description: Glass vials were charged with 1,4-butanediol, pure SA, and trace levels of either glucose, alanine, or both. The vials were heated at 180° C. for 2 hours and any color changes observed by visual inspection. [table]

SMILES | color change on heating, single impurity (impurity 10 ppm) | color change on heating, single impurity (impurity 100 ppm) | color change on heating, single impurity (impurity 1000 ppm) | color change on heating, two impurities (glucose 5 ppm, alanine 5 ppm) | color change on heating, two impurities (glucose 5 ppm, alanine 50 ppm) | color change on heating, two impurities (glucose 5 ppm, alanine 500 ppm) | color change on heating, two impurities (glucose 50 ppm, alanine 5 ppm) | color change on heating, two impurities (glucose 50 ppm, alanine 50 ppm) | color change on heating, two impurities (glucose 50 ppm, alanine 500 ppm) | color change on heating, two impurities (glucose 500 ppm, alanine 5 ppm) | color change on heating, two impurities (glucose 500 ppm, alanine 50 ppm) | color change on heating, two impurities (glucose 500 ppm, alanine 500 ppm)
C[C@H](N)C(=O)O [Alanine, alanine] | No color | No color | Slight yellow |  |  |  |  |  |  |  |  | 
O=C(O)CCC(=O)O [SA, succinic acid] |  |  |  | No color | yellow color; also recorded: Slight | Slight | No color | Slight | Light | No color | Slight | Light
